Source: PubChem BioAssay (NCI)
Where “and” joins values, the source holds several entries; their conditions need not be identical. Equal entries are not always repeated.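 Interpolation was linear, between the two tested concentrations surrounding the appropriate level; five concentrations were tested over 48 hours in 96-well plates. GI50 marks 50% less growth. TGI: total growth inhibition.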

Assays:
Assay in all cases: DTP human tumour cell line panel, 48 h
OVCAR-4 ovarian = system: OVCAR-4 ovarian
RPMI-8226 leukemia = system: RPMI-8226 leukemia
XF 498 CNS = system: XF 498 CNS
HL-60(TB) leukemia = system: HL-60(TB) leukemia
NCI-H522 lung = system: NCI-H522 lung
HOP-18 NSCLC = system: HOP-18 NSCLC
SNB-78 CNS = system: SNB-78 CNS
NCI/ADR-RES ovarian = system: NCI/ADR-RES ovarian
HS 578T breast = system: HS 578T breast
MDA-MB-435 = system: MDA-MB-435

O=C1CC(CC(=O)C2CCCCC2=O)C(=O)N1 (stereo unspecified)
TGI (OVCAR-4 ovarian): > 100 µM
TGI (RPMI-8226 leukemia): > 100 µM
TGI (XF 498 CNS): > 100 µM
TGI (HL-60(TB) leukemia): > 100 µM
TGI (NCI-H522 lung): > 100 µM
TGI (HOP-18 NSCLC): > 100 µM
TGI (SNB-78 CNS): > 100 µM

O=C(N/N=C/c1ccccc1O)N/N=C/c1ccccc1O
TGI (OVCAR-4 ovarian): > 100 µM
TGI (RPMI-8226 leukemia): > 100 µM
TGI (XF 498 CNS): > 100 µM
TGI (HL-60(TB) leukemia): > 100 µM
TGI (NCI-H522 lung): > 100 µM
TGI (HOP-18 NSCLC): > 100 µM
TGI (SNB-78 CNS): > 100 µM

C/C=C/C(C#N)O[Si](C)(C)C (stereo unspecified)
TGI (OVCAR-4 ovarian): > 100 µM
TGI (XF 498 CNS): > 100 µM
TGI (HL-60(TB) leukemia): > 100 µM
TGI (NCI-H522 lung): > 100 µM
TGI (HOP-18 NSCLC): > 100 µM
TGI (SNB-78 CNS): > 100 µM

Cc1c(OC(C)C(=O)O)ccc2c(-c3ccccc3)cc(=O)oc12 (stereo unspecified)
TGI (OVCAR-4 ovarian): > 100 µM
TGI (RPMI-8226 leukemia): > 100 µM
TGI (XF 498 CNS): > 100 µM
TGI (HL-60(TB) leukemia): > 100 µM
TGI (NCI-H522 lung): > 100 µM
TGI (HOP-18 NSCLC): > 100 µM
TGI (SNB-78 CNS): > 100 µM

Cn1c(=O)c(N=Nc2c(=O)n(C)c(=O)n3c2[nH]c2ccccc23)c2[nH]c3ccccc3n2c1=O
TGI (OVCAR-4 ovarian): > 100 µM
TGI (RPMI-8226 leukemia): > 100 µM
TGI (XF 498 CNS): > 100 µM
TGI (HL-60(TB) leukemia): > 100 µM
TGI (NCI-H522 lung): > 100 µM
TGI (HOP-18 NSCLC): > 100 µM
TGI (SNB-78 CNS): > 100 µM

O=C(NCCCOC(=O)CCCCCCCCC(=O)OCCCNC(=O)NC(=O)c1c[nH]c(=O)[nH]c1=O)NC(=O)c1c[nH]c(=O)[nH]c1=O
TGI (OVCAR-4 ovarian): > 100 µM
TGI (RPMI-8226 leukemia): > 100 µM
TGI (XF 498 CNS): > 100 µM
TGI (HL-60(TB) leukemia): > 100 µM
TGI (HOP-18 NSCLC): > 100 µM
TGI (SNB-78 CNS): > 100 µM

CC1CC(C)CC(C)C(O)/C(C#N)=C/C=C/CC(C2CCCC2C(=O)O)OC(=O)CC(O)C(C)C1 (stereo unspecified)
GI50 (NCI/ADR-RES ovarian): 0.187 µM and < 0.0196 µM
TGI (NCI/ADR-RES ovarian): 0.265 µM
GI50 (OVCAR-4 ovarian): 0.126 µM
TGI (OVCAR-4 ovarian): 0.51 µM and 1.89 µM
GI50 (HS 578T breast): 0.0395 µM
TGI (HS 578T breast): 0.223 µM and 0.0673 µM
GI50 (RPMI-8226 leukemia): 0.00486 µM
TGI (RPMI-8226 leukemia): 0.0315 µM and < 0.145 µM
TGI (XF 498 CNS): < 0.0264 µM
GI50 (HL-60(TB) leukemia): 0.0166 µM
TGI (HL-60(TB) leukemia): 0.0499 µM and 0.161 µM
GI50 (NCI-H522 lung): 0.00266 µM
TGI (NCI-H522 lung): 0.0137 µM and < 0.0119 µM
TGI (HOP-18 NSCLC): 0.0612 µM
GI50 (MDA-MB-435): 0.0281 µM
TGI (MDA-MB-435): 0.0871 µM and 0.0731 µM
TGI (SNB-78 CNS): 0.13 µM

c1cc[c]([Sn][c]2ccccc2)cc1
GI50 (OVCAR-4 ovarian): 24 µM
TGI (OVCAR-4 ovarian): 55.2 µM
GI50 (RPMI-8226 leukemia): 19.8 µM
TGI (RPMI-8226 leukemia): 49.2 µM
GI50 (XF 498 CNS): 13.3 µM
TGI (XF 498 CNS): 17.9 µM
GI50 (HL-60(TB) leukemia): 20.5 µM
TGI (HL-60(TB) leukemia): 41.9 µM
GI50 (NCI-H522 lung): 14.1 µM
TGI (NCI-H522 lung): 32.7 µM
GI50 (HOP-18 NSCLC): 21.6 µM
TGI (HOP-18 NSCLC): 48.8 µM
GI50 (SNB-78 CNS): 39.8 µM
TGI (SNB-78 CNS): > 100 µM

CC(=O)OCc1c2ccccc2c(C)c2c1cc(F)c1ccccc12
TGI (OVCAR-4 ovarian): 77.9 µM
TGI (XF 498 CNS): 45.2 µM
TGI (HL-60(TB) leukemia): 67.8 µM
TGI (NCI-H522 lung): 25.6 µM
TGI (HOP-18 NSCLC): > 100 µM
TGI (SNB-78 CNS): 59.8 µM

CCOC(=O)NC(=O)c1cn(CCN2CCN(C(=O)NCCCCCCNC(=O)N3CCN(CCn4cc(C(=O)NC(=O)OCC)c(=O)[nH]c4=O)CC3)CC2)c(=O)[nH]c1=O
TGI (OVCAR-4 ovarian): > 100 µM
TGI (RPMI-8226 leukemia): > 100 µM
TGI (XF 498 CNS): > 100 µM
TGI (HL-60(TB) leukemia): > 100 µM
TGI (NCI-H522 lung): > 100 µM
TGI (HOP-18 NSCLC): > 100 µM
TGI (SNB-78 CNS): > 100 µM

COC(=O)/C(=N\NC(C)(C)C)C(C(=O)OC)C(=O)C(=O)Nc1cc(Cl)ccc1Cl (stereo unspecified)
TGI (OVCAR-4 ovarian): > 100 µM
TGI (XF 498 CNS): > 100 µM
TGI (HL-60(TB) leukemia): > 100 µM
TGI (NCI-H522 lung): > 100 µM
TGI (HOP-18 NSCLC): > 100 µM
TGI (SNB-78 CNS): > 100 µM

C=C(c1ccccc1)C1(O)CCCCC1N (stereo unspecified)
TGI (OVCAR-4 ovarian): > 100 µM
TGI (RPMI-8226 leukemia): > 100 µM
TGI (XF 498 CNS): > 100 µM
TGI (HL-60(TB) leukemia): 43.5 µM
TGI (NCI-H522 lung): > 100 µM
TGI (HOP-18 NSCLC): > 100 µM
TGI (SNB-78 CNS): > 100 µM

Cc1nc(C(N)=O)c(N)n1CCN1CCN(C(=O)CCCCCCCCCCNC2N=CNc3nc[nH]c32)CC1 (stereo unspecified)
TGI (HL-60(TB) leukemia): 60.8 µM
TGI (HOP-18 NSCLC): > 100 µM
TGI (SNB-78 CNS): > 100 µM

Nc1ncnc2c1ncn2C1OC(CSCC(F)(F)F)C(O)C1O (stereo unspecified)
TGI (OVCAR-4 ovarian): > 100 µM
TGI (RPMI-8226 leukemia): > 100 µM
TGI (XF 498 CNS): > 100 µM
TGI (HL-60(TB) leukemia): > 100 µM
TGI (NCI-H522 lung): > 100 µM
TGI (HOP-18 NSCLC): > 100 µM
TGI (SNB-78 CNS): > 100 µM

CCc1cccc(C)c1NS(=O)(=O)c1ccccc1
TGI (OVCAR-4 ovarian): > 100 µM
TGI (RPMI-8226 leukemia): > 100 µM
TGI (XF 498 CNS): > 100 µM
TGI (HL-60(TB) leukemia): > 100 µM
TGI (SNB-78 CNS): > 100 µM

O=C1Nc2ccccc2C1(O)C/C(=N/O)c1ccc2ccccc2c1 (stereo unspecified)
TGI (OVCAR-4 ovarian): > 100 µM
TGI (RPMI-8226 leukemia): > 100 µM
TGI (XF 498 CNS): > 100 µM
TGI (HL-60(TB) leukemia): > 100 µM
TGI (NCI-H522 lung): > 100 µM
TGI (HOP-18 NSCLC): > 100 µM
TGI (SNB-78 CNS): > 100 µM

CN1N=CSC12C(=O)N(c1ccccc1)C(=O)N2c1ccccc1 (stereo unspecified)
TGI (OVCAR-4 ovarian): > 100 µM
TGI (RPMI-8226 leukemia): > 100 µM
TGI (XF 498 CNS): > 100 µM
TGI (HL-60(TB) leukemia): > 100 µM
TGI (HOP-18 NSCLC): 9.62 µM
TGI (SNB-78 CNS): > 100 µM

COc1cc(Cl)cc(=O)c(O)c1OC
TGI (OVCAR-4 ovarian): > 100 µM
TGI (RPMI-8226 leukemia): > 100 µM
TGI (XF 498 CNS): > 100 µM
TGI (HL-60(TB) leukemia): > 80.9 µM
TGI (NCI-H522 lung): > 64.3 µM
TGI (HOP-18 NSCLC): > 100 µM
TGI (SNB-78 CNS): > 100 µM

O=c1cc(-c2cccs2)[nH]c2cc3c(cc12)OCO3
TGI (OVCAR-4 ovarian): > 22.2 µM
TGI (RPMI-8226 leukemia): > 100 µM
TGI (XF 498 CNS): 15.3 µM
TGI (HL-60(TB) leukemia): 40.1 µM
TGI (NCI-H522 lung): 6.92 µM
TGI (HOP-18 NSCLC): > 100 µM
TGI (SNB-78 CNS): > 100 µM

O=C(/C=C/c1ccccc1)Oc1cccc2cccnc12
TGI (OVCAR-4 ovarian): 27.6 µM
TGI (RPMI-8226 leukemia): > 100 µM
TGI (XF 498 CNS): 72.5 µM
TGI (HL-60(TB) leukemia): > 28.1 µM
TGI (NCI-H522 lung): 5.31 µM
TGI (HOP-18 NSCLC): > 100 µM
TGI (SNB-78 CNS): > 100 µM
